Read-outs that look alike come from different tables or passages of the source.
Experiments:
P. falciparum 3D7 [1] = assay: DAPI stain fluorescent high content imaging assay, P. falciparum 3D7 (confirmatory screen, Avery); details: Plasmodium falciparum; for EC50: 3D7, read-out: EC50_nM; for inhibition of growth at 5 µM: 3D7, read-out: percent_inh @ 5 uM; for inhibition of growth at 2 µM: 3D7, read-out: percent_inh @ 2 uM
P. falciparum 3D7 [2] = system: P. falciparum 3D7; set-up: method as in ChEMBL-NTD; details: ref ChEMBL-NTD, cited from earlier work
[3] = values follow the order of the source (GNF; GSK; StJude)
[4] = original screening data, source (GSK, GNF, StJude), several values separated by ';' in order of sources

EC50 (P. falciparum 3D7 [1]) | SMILES | inhibition of growth at 5 µM (P. falciparum 3D7 [1]) | also measured
168 nM | COc1ccc(C=C2SC(=N)N(c3ccccc3OC)C2=O)cc1 [MMV666691] | 97% | EC50 (P. falciparum 3D7 [2]; source GSK (TCMDC id)): 300 nM
313 nM | FC(F)(F)c1cccc(Nc2nc3ccccc3nc2Nc2cccc(C(F)(F)F)c2)c1 [MMV665794] | 99% | EC50 (P. falciparum 3D7 [2]; source GSK (TCMDC ids)): 137 nM
4000 nM | COc1cccc(Nc2nc(N)c3ccccc3n2)c1 [MMV019199] | – | inhibition of growth at 2 µM (P. falciparum 3D7 [1]): 94%; EC50 (P. falciparum 3D7 [2]; [3]): 934 nM
– | COc1ccc(N2CCN(C(CNC(=O)CC(C)(C)C)c3ccc4c(c3)OCO4)CC2)cc1 (centres unmarked) [MMV665908] | 95% | EC50 (P. falciparum 3D7 [2]; source StJude (SJ ids)): 4280 nM
– | COc1ccc2sc(N(Cc3cccnc3)C(=O)c3ccc(C#N)cc3)nc2c1 [MMV001239] | – | inhibition of growth at 2 µM (P. falciparum 3D7 [1]): 89%; EC50 (P. falciparum 3D7 [2]; [3]): 15000 nM
1020 nM | Cc1ccnc(NC(c2cccc(OCc3ccccc3)c2)c2ccc3cccnc3c2O)c1 (centres unmarked) [MMV000720] | 97% | EC50 (P. falciparum 3D7 [2]; source GSK (TCMDC ids)): 864 nM; EC50 (P. falciparum 3D7 [2]; source StJude (SJ ids)): 1810 nM
251 nM | c1ccc2cc3c(Nc4ccc(N5CCOCC5)cc4)ccnc3cc2c1 [MMV006861] | 97% | EC50 (P. falciparum 3D7 [2]; source GNF (GNF-Pf id)): 672 nM
– | Cc1ccc(S(=O)(=O)c2c(COC(=O)c3cccc(C)c3)c(-c3ccccc3)nn2C)cc1 [MMV665936] | 95% | EC50 (P. falciparum 3D7 [2]; source GNF (GNF-Pf ids)): 8400 nM
176 nM | COc1ccc(-c2nc3cc(Cc4ccc5[nH]c(-c6ccc(OC)cc6)nc5c4)ccc3[nH]2)cc1 [MMV007384] | 98% | EC50 (P. falciparum 3D7 [2]; source GNF (GNF-Pf id)): 234 nM
1180 nM | COc1cc(-c2nc(-c3ccccc3)c(-c3ccccc3)[nH]2)cc(OC)c1O [MMV020750] | 97% | EC50 (P. falciparum 3D7 [2]; [3]): 774 nM
22.6 nM | Oc1ccccc1CNCC12CC3CC(CC(C3)C1)C2 [MMV020788] | 96% | EC50 (P. falciparum 3D7 [2]; source GSK (TCMDC id)): 279 nM
– | COCCNC(=O)c1ccc(OC2CCN(Cc3ccc(F)c(F)c3)CC2)c(Cl)c1 [MMV666072] | 91% | EC50 (P. falciparum 3D7 [2]; source GSK): 1490 nM
590 nM | OCCNc1nc(Nc2ccc(Cl)c(Cl)c2)nc2ccccc12 [MMV001041] | – | inhibition of growth at 2 µM (P. falciparum 3D7 [1]): 94%; EC50 (P. falciparum 3D7 [2]; source GNF): 140 nM; EC50 (P. falciparum 3D7 [2]; source StJude): 15000 nM
282 nM | Cc1ccc(N2C(=O)C3C(C2=O)C2(c4ccccc4)C(=O)C3(c3ccccc3)C(c3ccccc3)=C2c2ccccc2)cc1 (centres unmarked) [MMV666062] | 98% | EC50 (P. falciparum 3D7 [2]; source GSK (TCMDC id)): 869 nM
378 nM | CCc1c(C)c(=N)c2ccccc2n1C [MMV006278] | 76% | EC50 (P. falciparum 3D7 [2]; source GNF (GNF-Pf id)): 701 nM
893 nM | N=c1n(CCN2CCCCC2)c2ccccc2n1CC(O)c1cccc(Br)c1 (centres unmarked) [MMV665902] | 98% | EC50 (P. falciparum 3D7 [2]; source GSK): 1140 nM
– | Oc1c2c(nc3cc(-c4ccccc4)nn13)CCCC2 [MMV008270] | 77% | EC50 (P. falciparum 3D7 [2]; [4]): 1930 nM
683 nM | CCOc1cc2c(cc1OCC)C(c1cc(C)c(O)c(C)c1)NCC2 (centres unmarked) [MMV000483] | 97% | EC50 (P. falciparum 3D7 [2]; [4]): 1830 nM
912 nM | COc1ccc(OC)c(C2C3=C(CC(C)(C)CC3=O)N(c3ccc(Cl)c(Cl)c3)C3=C2C(=O)CC(C)(C)C3)c1 [MMV007208] | 90% | EC50 (P. falciparum 3D7 [2]; source GNF (GNF-Pf ids)): 430 nM
1260 nM | OC(Cn1nnc2ccccc21)Cn1c2ccc(Br)cc2c2cc(Br)ccc21 (centres unmarked) [MMV666025] | 98% | EC50 (P. falciparum 3D7 [2]; source GNF (GNF-Pf ids)): 3370 nM
1310 nM | Cc1ccc2cc3c(N)c4c(C)ccc(C)c4nc3nc2c1 [MMV666079] | 98% | EC50 (P. falciparum 3D7 [2]; source GNF (GNF-Pf ids)): 431 nM
795 nM | O=C1c2ccc3c4c(ccc(c24)C(=O)N1CCCCO)C(=O)N(CCCCO)C3=O [MMV009085] | 97% | EC50 (P. falciparum 3D7 [2]; [3]): 354 nM
135 nM | CSC1=NC(=Nc2c(C)cccc2C)C2(CCC(C(C)(C)C)CC2)N1c1ccc(Cl)cc1 (centres unmarked) [MMV666596] | 96% | EC50 (P. falciparum 3D7 [2]; source GNF (GNF-Pf id)): 1480 nM
– | CCCCCCC(O)(c1ccc(F)cc1)C(CN1CCOCC1)c1ccccc1 (centres unmarked) [MMV000621] | 93% | EC50 (P. falciparum 3D7 [2]; source StJude (SJ ids)): 3180 nM
669 nM | Cn1c(=O)c2cc(C(=O)NCCCN3CCCCCC3)sc2c2ccccc21 [MMV019313] | 97% | EC50 (P. falciparum 3D7 [2]; source GSK): 689 nM
94.4 nM | Cc1ccc(-c2cc3c(nn2)-c2ccccc2C3=O)cc1 [MMV666021] | 99% | EC50 (P. falciparum 3D7 [2]; source GNF): 2000 nM
414 nM | O=C1c2ccccc2C2=Nc3ccccc3SC(c3cccc(F)c3)C12 (centres unmarked) [MMV006389] | 94% | EC50 (P. falciparum 3D7 [2]; source GNF (GNF-Pf ids)): 86.7 nM

SMILES | EC50 (P. falciparum 3D7 [1]) | inhibition of growth at 5 µM (P. falciparum 3D7 [1]) | also measured
c1ccc2c(NCCCCCCNc3c4c(nc5ccccc35)CCCC4)c3c(nc2c1)CCCC3 [MMV019555] | 376 nM | 100% | EC50 (P. falciparum 3D7 [2]; source GSK (TCMDC ids)): 196 nM

Reference: article PMC3684613 (PLoS ONE, 2013)
